Legend:
Type in all cases: biochemical
Details in all cases: ADP-Glo SIK kinase assay
[1] = target: T1, SIK2 (Homo sapiens, UniProt Q9H0K1); test: ADP-Glo kinase assay, SIK2
T1 construct: purchased ThermoFisher Scientific PV4792
How it was run: (§1)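 Wells with 1% DMSO or 10 μM staurosporine (final) define the control window. The kinase reaction with substrate and ATP runs 120 min at RT, followed by ADP-Glo detection: ATP depletion (40 min) and ADP-derived luminescence (30 min).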

[2] = target: T2, SIK3 (Homo sapiens, UniProt Q9Y2K2); test: ADP-Glo kinase assay, SIK3
T2 construct: purchased SignalChem S12-11G-100
T2 sequence (Q9Y2K2 whole entry): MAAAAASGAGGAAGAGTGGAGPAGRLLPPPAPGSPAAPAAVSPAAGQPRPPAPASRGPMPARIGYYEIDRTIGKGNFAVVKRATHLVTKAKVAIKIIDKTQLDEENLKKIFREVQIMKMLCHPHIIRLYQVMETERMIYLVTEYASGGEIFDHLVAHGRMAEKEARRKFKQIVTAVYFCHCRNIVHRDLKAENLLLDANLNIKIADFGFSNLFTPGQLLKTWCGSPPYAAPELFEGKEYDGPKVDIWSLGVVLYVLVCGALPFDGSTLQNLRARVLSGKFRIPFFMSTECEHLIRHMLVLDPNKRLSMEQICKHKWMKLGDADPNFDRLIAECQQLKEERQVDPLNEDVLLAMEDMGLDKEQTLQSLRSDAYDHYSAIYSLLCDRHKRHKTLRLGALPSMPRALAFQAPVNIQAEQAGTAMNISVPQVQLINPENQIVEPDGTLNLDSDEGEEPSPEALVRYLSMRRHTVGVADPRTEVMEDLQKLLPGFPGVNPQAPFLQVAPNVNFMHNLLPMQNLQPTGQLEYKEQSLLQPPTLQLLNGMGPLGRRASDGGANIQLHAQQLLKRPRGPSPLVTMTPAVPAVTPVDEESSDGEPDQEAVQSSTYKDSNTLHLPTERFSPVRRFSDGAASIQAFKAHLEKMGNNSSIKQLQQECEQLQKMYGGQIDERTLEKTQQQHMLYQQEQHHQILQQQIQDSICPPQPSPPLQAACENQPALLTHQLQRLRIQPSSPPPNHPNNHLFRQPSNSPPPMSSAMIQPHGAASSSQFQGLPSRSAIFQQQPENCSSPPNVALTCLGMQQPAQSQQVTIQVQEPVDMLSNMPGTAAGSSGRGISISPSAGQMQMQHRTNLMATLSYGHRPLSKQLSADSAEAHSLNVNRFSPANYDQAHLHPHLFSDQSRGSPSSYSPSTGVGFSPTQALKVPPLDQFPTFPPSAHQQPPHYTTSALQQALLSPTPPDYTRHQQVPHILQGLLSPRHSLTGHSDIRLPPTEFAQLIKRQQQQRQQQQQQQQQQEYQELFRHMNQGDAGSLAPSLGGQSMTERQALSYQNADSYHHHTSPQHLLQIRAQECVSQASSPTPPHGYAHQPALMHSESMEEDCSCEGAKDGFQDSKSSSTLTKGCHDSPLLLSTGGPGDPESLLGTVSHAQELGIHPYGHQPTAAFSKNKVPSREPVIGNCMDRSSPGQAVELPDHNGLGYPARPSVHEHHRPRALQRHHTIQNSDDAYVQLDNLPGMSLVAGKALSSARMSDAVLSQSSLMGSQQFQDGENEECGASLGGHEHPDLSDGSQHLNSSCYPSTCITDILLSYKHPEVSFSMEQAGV
How it was run: as §1

[3] = target: T3, SIK1 (Homo sapiens, UniProt P57059); test: ADP-Glo kinase assay, SIK1
T3 construct: purchased Carna Biosciences 02-131
T3 sequence (P57059 whole entry): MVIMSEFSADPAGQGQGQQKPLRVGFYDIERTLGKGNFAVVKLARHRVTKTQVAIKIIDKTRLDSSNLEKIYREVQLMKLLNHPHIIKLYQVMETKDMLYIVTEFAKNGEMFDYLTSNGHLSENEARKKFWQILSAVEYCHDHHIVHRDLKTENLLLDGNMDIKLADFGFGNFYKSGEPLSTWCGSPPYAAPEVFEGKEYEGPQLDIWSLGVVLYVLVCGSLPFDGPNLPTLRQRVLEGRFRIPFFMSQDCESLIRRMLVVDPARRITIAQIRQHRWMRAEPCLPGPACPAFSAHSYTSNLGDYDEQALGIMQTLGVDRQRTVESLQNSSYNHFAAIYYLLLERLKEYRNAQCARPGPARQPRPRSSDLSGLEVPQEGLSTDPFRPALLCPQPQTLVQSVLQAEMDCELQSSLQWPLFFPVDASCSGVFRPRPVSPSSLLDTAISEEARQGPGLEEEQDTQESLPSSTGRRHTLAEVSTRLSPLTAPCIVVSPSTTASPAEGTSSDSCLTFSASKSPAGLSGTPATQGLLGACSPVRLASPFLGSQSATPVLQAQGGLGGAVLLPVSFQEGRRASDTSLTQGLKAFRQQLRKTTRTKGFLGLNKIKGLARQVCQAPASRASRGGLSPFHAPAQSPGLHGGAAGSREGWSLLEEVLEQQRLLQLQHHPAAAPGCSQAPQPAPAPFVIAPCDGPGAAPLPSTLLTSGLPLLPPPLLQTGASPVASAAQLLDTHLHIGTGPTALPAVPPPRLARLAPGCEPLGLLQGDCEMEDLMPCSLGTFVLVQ
How it was run: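 ADP-Glo, RT throughout. Enz/substrate + ATP, 120 min; ADP-Glo reagent 40 min (ATP depletion); detection reagent 30 min; luminescence read. Neg ctrl 1% DMSO, pos ctrl 10 μM staurosporine, final concs.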

T1 sequence (Q9H0K1 whole entry): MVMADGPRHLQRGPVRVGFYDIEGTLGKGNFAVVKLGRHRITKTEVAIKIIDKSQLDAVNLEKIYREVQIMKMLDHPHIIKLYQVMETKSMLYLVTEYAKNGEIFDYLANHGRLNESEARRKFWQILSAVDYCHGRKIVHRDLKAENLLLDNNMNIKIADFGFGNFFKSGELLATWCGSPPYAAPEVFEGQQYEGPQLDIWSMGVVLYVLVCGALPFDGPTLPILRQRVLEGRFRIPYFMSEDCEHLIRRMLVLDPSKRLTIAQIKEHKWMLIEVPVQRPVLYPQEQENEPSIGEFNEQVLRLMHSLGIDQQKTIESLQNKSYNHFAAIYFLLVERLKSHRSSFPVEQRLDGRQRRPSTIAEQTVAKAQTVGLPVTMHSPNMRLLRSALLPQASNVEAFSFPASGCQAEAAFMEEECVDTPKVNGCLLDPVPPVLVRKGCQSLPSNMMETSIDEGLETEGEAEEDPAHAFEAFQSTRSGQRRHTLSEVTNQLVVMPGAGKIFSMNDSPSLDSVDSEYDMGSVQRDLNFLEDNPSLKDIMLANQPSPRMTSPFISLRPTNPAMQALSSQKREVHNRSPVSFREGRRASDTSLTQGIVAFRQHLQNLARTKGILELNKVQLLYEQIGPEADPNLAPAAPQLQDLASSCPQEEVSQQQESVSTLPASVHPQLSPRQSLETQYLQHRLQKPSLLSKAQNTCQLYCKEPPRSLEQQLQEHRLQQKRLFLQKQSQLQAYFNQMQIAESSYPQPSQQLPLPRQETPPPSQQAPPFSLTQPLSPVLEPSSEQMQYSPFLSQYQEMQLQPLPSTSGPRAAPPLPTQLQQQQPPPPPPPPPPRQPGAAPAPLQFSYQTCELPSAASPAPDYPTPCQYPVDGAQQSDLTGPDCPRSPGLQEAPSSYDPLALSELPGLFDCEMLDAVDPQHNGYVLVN

Structure (SMILES) | IC50 [1] | IC50 [2] | IC50 [3]
COc1cc(-c2cnc3cc(OCCN4CCN(C)CC4)ccn23)cc(OC(F)F)c1C(=O)NC1CC1 [compound 9, N-cyclopropyl-2-(difluoromethoxy)-6-methoxy-4-[7-[2-(4-methylpiperazin-1-yl)ethoxy]imidazo[1,2-a]pyridin-3-yl]benzamide] | 0.01 to 10 nM | 0.01 to 10 nM | 10 to 100 nM
CCOC(=O)C1(F)CCN(CCOc2ccn3c(-c4cc(OC)c(C(=O)NC5CC5)c(OC(F)F)c4)cnc3c2)CC1 [compound 390, ethyl 1-[2-[3-[4-(cyclopropylcarbamoyl)-3-(difluoromethoxy)-5-methoxy-phenyl]imidazo[1,2-a]pyridin-7-yl]oxyethyl]-4-fluoro-piperidine-4-carboxylate] | 0.01 to 10 nM | 0.01 to 10 nM | 10 to 100 nM
COc1cc(-c2cnc3cc(OCCN4CCOC[C@H]4C)ccn23)cc2c1C(=O)N(CC(F)(F)F)CC2 [compound 259, 8-methoxy-6-[7-[2-[(3R)-3-methylmorpholin-4-yl]ethoxy]imidazo[1,2-a]pyridin-3-yl]-2-(2,2,2-trifluoroethyl)-3,4-dihydroisoquinolin-1-one] | 10 to 100 nM | 10 to 100 nM | 100 to 500 nM
COc1cc(-c2cnc3cc(OCCCN4CCS(=O)(=O)CC4)ccn23)cc(OC(F)F)c1C(=O)NC1CC1 [Cpd 331, N-cyclopropyl-2-(difluoromethoxy)-4-[7-[3-(1,1-dioxo-1,4-thiazinan-4-yl)propoxy]imidazo[1,2-a]pyridin-3-yl]-6-methoxy-benzamide] | 0.01 to 10 nM | 0.01 to 10 nM | 10 to 100 nM
COc1cc(-c2cnc3cc(OCCCN4CCC5(CC4)CN(C)C(=O)O5)ccn23)cc(OC(F)F)c1C(=O)NC1CC1 [compound 325, N-cyclopropyl-2-(difluoromethoxy)-6-methoxy-4-[7-[3-(3-methyl-2-oxo-1-oxa-3,8-diazaspiro[4.5]decan-8-yl)propoxy]imidazo[1,2-a]pyridin-3-yl]benzamide] | 0.01 to 10 nM | 0.01 to 10 nM | 10 to 100 nM
COc1cc(-c2cnc3cc(OC(C)(C)CO)ccn23)cc(OC(F)F)c1C(=O)NC1CC1 [Cpd 209, N-cyclopropyl-2-(difluoromethoxy)-4-[7-(2-hydroxy-1,1-dimethyl-ethoxy)imidazo[1,2-a]pyridin-3-yl]-6-methoxy-benzamide] | > 500 nM | 10 to 100 nM | > 500 nM
COc1cc(-c2cnc3cc(OCCN4CCN(C(C)C)CC4)ccn23)cc(OC(F)F)c1C(=O)NC1CC1 [compound 276, N-cyclopropyl-2-(difluoromethoxy)-4-[7-[2-(4-isopropylpiperazin-1-yl)ethoxy]imidazo[1,2-a]pyridin-3-yl]-6-methoxy-benzamide] | 0.01 to 10 nM | 0.01 to 10 nM | 10 to 100 nM
COc1cc(-c2cnc3cc(OCC(O)CN4CCOCC4)ccn23)cc(OC(F)F)c1C(=O)NC1CC1 (single isomer, unassigned) [Cpd 387, N-cyclopropyl-2-(difluoromethoxy)-4-[7-(2-hydroxy-3-morpholino-propoxy)imidazo[1,2-a]pyridin-3-yl]-6-methoxy-benzamide] | 0.01 to 10 nM | 0.01 to 10 nM | 10 to 100 nM
COc1cc(-c2cnc3cc(OCCN4C5CCC4COC5)ccn23)cc(OC(F)F)c1C(=O)NC1CC1 [compound 193, N-cyclopropyl-2-(difluoromethoxy)-6-methoxy-4-[7-[2-(3-oxa-8-azabicyclo [3.2.1]octan-8-yl)ethoxy]imidazo[1,2-a]pyridin-3-yl]benzamide] | 0.01 to 10 nM | 0.01 to 10 nM | 10 to 100 nM
COc1cc(-c2cnc3cc(OCCCN4CC5(COC5)C4)ccn23)cc(OC(F)F)c1C(=O)NC1CC1 [compound 273, N-cyclopropyl-2-(difluoromethoxy)-6-methoxy-4-[7-[3-(2-oxa-6-azaspiro[3.3]heptan-6-yl)propoxy]imidazo[1,2-a]pyridin-3-yl]benzamide] | 0.01 to 10 nM | 0.01 to 10 nM | 10 to 100 nM
